In US8034790B2, “Use of MDA-7 to inhibit pathogenic infectious organisms” (priority 2003, dated 2011):

Columns and labels:
H1299 cells = assay: Cell viability / cell killing (trypan blue exclusion) in H1299 cells; type: cell-based, human; conditions: for effect on cell killing by Ad-mda7 / cytotoxicity of secretion inhibitor alone / effect on cell killing due to Ad-luc or Ad-endostatin / cell killing by MDA-7 protein applied to cells: H1299 cells; for effect on cell killing by Ad-mda7: combination of Ad-mda7 and secretion inhibitor; for cytotoxicity of secretion inhibitor alone: dose that blocks MDA-7 secretion; for effect on cell killing due to Ad-luc or Ad-endostatin: p>0.05; for cell killing by MDA-7 protein applied to cells: viability after 3 days, EM 20-100 ng/ml, BacM 100 ng/ml, supernatant 10 and 100 ng/ml
Procedure: Construction and purification of replication-deficient human type 5 Adenovirus (Ad5) carrying the mda-7 gene was described previously (Mhashilkar et al., 2001). Cell lines were infected with Ad-mda7 or Ad-luc with indicated MOIs. Cells were plated at 10^5-10^6 cells/well in a 6-well plate format for protein expression, trypan-blue exclusion assay or apoptosis assays. For transfection with pShooter vectors, 1 μg of plasmid DNA was used to transfect cells using lipofectamine protocol as described (Mhashilkar et al., 2003).
Cell viability was determined by trypan blue exclusion assay or Live/Dead assay. Cells were trypsinized and a small aliquot was suspended 1:1 volume with 0.1% trypan blue. Total cell numbers and cell viability counts were assessed using a hemocytometer under light microscopy. For Live/Dead assay (Molecular Probes, Eugene Oreg.) cells were plated in chamber slides (Nunc) and then treated with pShooter-plasmid vectors or with Ad− vectors. Two-four days later the cells were treated with the probes, Calcein AM and Ethidium homodimer (both at 5 uM final conc. in PBS), for 30 minutes and then live (green) and dead (red) cells were counted via fluorescence microscopy. All assays were performed at least three times.

MDA-7 protein = MDA-7 protein expression and secretion by western blot (cell lysates and supernatants); type: cell-based, human; conditions: Ad-mda7 treated H1299 cells
Procedure: Cell lysates ([…]) were suspended in 500 μl of Laemmli buffer with 5% 2-mercapto-ethanol (2ME) or supernatants (1:1 mixing with Laemmli buffer+2ME), were analyzed by SDS gel electrophoresis and western blot analysis. Expression of various proteins was determined by using the following primary antibodies: rabbit or mouse anti-human MDA-7 (Introgen Therapeutics, Inc), goat anti-human BiP/GRP-78, rabbit anti-human GADD34, goat anti-human PP2A, goat anti-human PERK, rabbit anti-human XBP-1 (Santa Cruz Biotechnologies, Santa Cruz, Calif.), rabbit anti-human caspase 7 and caspase-9 (Cell Signaling Technology, Beverly, Mass.). Antibodies against beta-actin, and alpha-tubulin were purchased from Sigma. Following incubation with horseradish peroxidase-labeled secondary antibody (Amersham Biosciences, Piscataway, N.J.) the proteins were visualized on enhanced chemiluminescence film (Hyperfilm, Amersham Biosciences, Piscataway, N.J.) by application of Amersham's enhanced chemiluminescence western blotting detection system. All westerns were performed 2-4 times.
H1299 cells were treated with 1000 vp/cell Ad-mda7 and the indicated concentrations of tunicamycin. Cells were harvested 24 hr later and analyzed for intracellular and secreted MDA-7 protein by western blot and apoptosis via Annexin V assay. Control cultures of cells treated with only tunicamycin were also assessed for apoptosis (Tun. Toxicity).

endostatin = assay: Endostatin secretion from Ad-endostatin treated H1299 cells; type: cell-based, human; conditions: H1299 cells treated with Ad-endostatin
Text: To address whether apoptosis induction is due to intracellular MDA-7 or is simply a non-specific effect due to protein accumulation in the ER, we performed similar experiments using an adenoviral vector encoding endostatin as a control glycosylated secreted protein.

Row | Molecule | effect on cell killing by Ad-mda7 (H1299 cells) | cytotoxicity of secretion inhibitor alone (H1299 cells) | effect on cell killing due to Ad-luc or Ad-endostatin (H1299 cells) | effect on endostatin secretion (endostatin) | cell killing by MDA-7 protein applied to cells (H1299 cells) | other results
1 | C[C@H]1CCC/C=C/[C@@H]2C[C@H](O)C[C@H]2[C@H](O)/C=C/C(=O)O1 [BFA, Brefeldin A] | slightly enhanced cell killing | not cytotoxic | Neither BFA nor tunicamycin significantly modulated cell killing | potently blocked endostatin secretion |  | inhibition of MDA-7 secretion (MDA-7 protein; 1 μg/ml BFA): completely block MDA-7 secretion; concentration required to completely block secretion of MDA-7 protein (MDA-7 protein): less than 1 μg/ml
2 | Tunicamycin | slightly enhanced cell killing | not cytotoxic | Neither BFA nor tunicamycin significantly modulated cell killing | potently blocked endostatin secretion |  | reduction of secreted MDA-7 (MDA-7 protein; 1 μg/ml tunicamycin): > 60%; inhibition of MDA-7 secretion (MDA-7 protein; 2 μg/ml tunicamycin): completely blocked secretion
3 | MDA-7 containing supernatant: MDA-7 containing supernatant from stably expressing 293-mda7 cells (protein, UniProt Q13007 52-206, looked up, cell culture supernatant, MDA-7 containing supernatant from stably expressing 293-mda7 cells) Interleukin-24: QEFHFGPCQVKGVVPQKLWEAFWAVKDTMQAQDNITSARLLQQEVLQNVSDAESCYLVHTLLEFYLKTVFKNYHNRTVEVRTLKSFSTLANNFVLIVSQLQPSQENEMFSIRDSAHRRFLLFRRAFKQLDVEAALTKALGEVDILLTWMQKFYKL |  |  |  |  | did not induce cell death | cell death above background levels (H1299 cells; supernatant from stably expressing 293-mda7 cells applied to H1299 cells, 10 and 100 ng/ml, 3 days): < 10%
4 | BacM: MDA-7 protein made in insect cells using baculovirus vectors (protein, UniProt Q13007 52-206, looked up, insect cell expressed, MDA-7 protein made in insect cells using baculovirus vectors) Interleukin-24: QEFHFGPCQVKGVVPQKLWEAFWAVKDTMQAQDNITSARLLQQEVLQNVSDAESCYLVHTLLEFYLKTVFKNYHNRTVEVRTLKSFSTLANNFVLIVSQLQPSQENEMFSIRDSAHRRFLLFRRAFKQLDVEAALTKALGEVDILLTWMQKFYKL |  |  |  |  | failed to induce significant killing | 
5 | MDA-7: protein of 206 amino acids (SEQ ID NO: 2) encoded by mda-7 cDNA (protein, listed as Homo sapiens) MNFQQRLQSLWTLARPFCPPLLATASQMQMVVLPCLGFTLLLWSQVSGAQGQEFHFGPCQVKGVVPQKLWEAFWAVKDTMQAQDNITSARLLQQEVLQNVSDAESCYLVHTLLEFYLKTVFKNYHNRTVEVRTLKSFSTLANNFVLIVSQLQPSQENEMFSIRDSAHRRFLLFRRAFKQLDVEAALTKALGEVDILLTWMQKFYKL |  |  |  |  |  | cell killing (H1299 cells; H1299 cells treated with MDA-7 protein and then transduced with Ad-luc): Only background killing was observed; anti-angiogenic activity, potency relative to endostatin (Anti-angiogenic activity): 50 fold
